Numbers after ± are expanded uncertainties.
Test: xn = mol fraction of the nth substance listed
Details: 101 kPa, Liquid

Clc1ccccc1 [chlorobenzene] + CC(C)(C)O
mass density [kg/m3]
Details	303.15 K	308.15 K	313.15 K	318.15 K	323.15 K
x2 = 0	1095.64 ± 0.28	1090.23 ± 0.27	1084.82 ± 0.26	1079.42 ± 0.25	1073.97 ± 0.24
x2 = 0.0514	1078.9 ± 0.26	1073.42 ± 0.25	1067.94 ± 0.24	1062.44 ± 0.23	1056.94 ± 0.23
x2 = 0.1001	1063.67 ± 0.23	1058.13 ± 0.23	1052.58 ± 0.22	1047.01 ± 0.21	1041.43 ± 0.2
x2 = 0.1498	1048.32 ± 0.21	1042.74 ± 0.2	1037.14 ± 0.2	1031.52 ± 0.19	1025.89 ± 0.18
x2 = 0.199	1033.1 ± 0.19	1027.51 ± 0.18	1021.89 ± 0.17	1016.24 ± 0.17	1010.56 ± 0.16
x2 = 0.2505	1017.18 ± 0.17	1011.59 ± 0.16	1005.96 ± 0.15	1000.3 ± 0.14	994.615 ± 0.15
x2 = 0.3	1001.8 ± 0.15	996.225 ± 0.15	990.603 ± 0.16	984.94 ± 0.17	979.276 ± 0.17
x2 = 0.351	985.908 ± 0.16	980.337 ± 0.17	974.721 ± 0.18	969.053 ± 0.19	963.346 ± 0.2
x2 = 0.3707	979.707 ± 0.17	974.152 ± 0.18	968.545 ± 0.19	962.885 ± 0.2	957.187 ± 0.21
x2 = 0.3997	970.62 ± 0.19	965.075 ± 0.2	959.477 ± 0.2	953.823 ± 0.21	948.132 ± 0.22
x2 = 0.45	954.724 ± 0.21	949.206 ± 0.22	943.631 ± 0.23	937.997 ± 0.24	932.311 ± 0.24
x2 = 0.5	938.79 ± 0.23	933.303 ± 0.24	927.755 ± 0.25	922.142 ± 0.26	916.464 ± 0.27
x2 = 0.5499	922.845 ± 0.26	917.39 ± 0.27	911.872 ± 0.28	906.286 ± 0.28	900.633 ± 0.29
x2 = 0.6003	906.668 ± 0.28	901.248 ± 0.29	895.76 ± 0.3	890.201 ± 0.31	884.578 ± 0.32
x2 = 0.6499	890.559 ± 0.31	885.172 ± 0.32	879.716 ± 0.33	874.189 ± 0.34	868.592 ± 0.34
x2 = 0.7002	874.261 ± 0.34	868.904 ± 0.34	863.477 ± 0.35	857.976 ± 0.36	852.408 ± 0.37
x2 = 0.7482	858.49 ± 0.36	853.167 ± 0.37	847.772 ± 0.38	842.3 ± 0.39	836.757 ± 0.39
x2 = 0.7998	841.567 ± 0.39	836.267 ± 0.4	830.896 ± 0.4	825.45 ± 0.41	819.931 ± 0.42
x2 = 0.8498	825.04 ± 0.41	819.768 ± 0.42	814.423 ± 0.43	809 ± 0.44	803.512 ± 0.45
x2 = 0.9004	808.338 ± 0.44	803.082 ± 0.45	797.754 ± 0.46	792.35 ± 0.46	786.87 ± 0.47

Clc1ccccc1 [chlorobenzene] + CCC(C)O
mass density [kg/m3]
Details	288.15 K	293.15 K	298.15 K	303.15 K	308.15 K	313.15 K
x2 = 0	1111.81 ± 0.3	1106.43 ± 0.29	1101.04 ± 0.28	1095.64 ± 0.28	1090.23 ± 0.27	1084.82 ± 0.26
x2 = 0.0496	1097.45 ± 0.29	1092.02 ± 0.28	1086.59 ± 0.27	1081.16 ± 0.26	1075.72 ± 0.25	1070.28 ± 0.24
x2 = 0.1003	1083.13 ± 0.27	1077.7 ± 0.26	1072.25 ± 0.25	1066.79 ± 0.24	1061.32 ± 0.23	1055.83 ± 0.23
x2 = 0.1501	1069.16 ± 0.25	1063.74 ± 0.24	1058.31 ± 0.23	1052.85 ± 0.23	1047.37 ± 0.22	1041.88 ± 0.21
x2 = 0.2	1055.05 ± 0.23	1049.66 ± 0.23	1044.24 ± 0.22	1038.8 ± 0.21	1033.33 ± 0.2	1027.86 ± 0.19
x2 = 0.2502	1040.78 ± 0.22	1035.43 ± 0.21	1030.05 ± 0.2	1024.63 ± 0.19	1019.19 ± 0.18	1013.73 ± 0.18
x2 = 0.3007	1026.39 ± 0.2	1021.07 ± 0.19	1015.73 ± 0.18	1010.35 ± 0.18	1004.94 ± 0.17	999.501 ± 0.16
x2 = 0.3497	1012.26 ± 0.19	1006.99 ± 0.18	1001.69 ± 0.17	996.346 ± 0.17	990.966 ± 0.18	985.56 ± 0.19
x2 = 0.3999	997.723 ± 0.18	992.501 ± 0.19	987.245 ± 0.19	981.952 ± 0.2	976.612 ± 0.21	971.251 ± 0.22
x2 = 0.4499	983.091 ± 0.21	977.922 ± 0.21	972.717 ± 0.22	967.468 ± 0.23	962.174 ± 0.24	956.834 ± 0.24
x2 = 0.5	968.364 ± 0.24	963.258 ± 0.24	958.109 ± 0.25	952.917 ± 0.26	947.675 ± 0.27	942.399 ± 0.27
x2 = 0.5498	953.525 ± 0.27	948.484 ± 0.27	943.398 ± 0.28	938.263 ± 0.29	933.079 ± 0.29	927.858 ± 0.3
x2 = 0.5999	938.418 ± 0.3	933.448 ± 0.3	928.431 ± 0.31	923.362 ± 0.32	918.237 ± 0.33	913.072 ± 0.33
x2 = 0.6499	923.235 ± 0.33	918.341 ± 0.34	913.397 ± 0.34	908.397 ± 0.35	903.335 ± 0.35	898.213 ± 0.36
x2 = 0.7	907.848 ± 0.36	903.04 ± 0.37	898.18 ± 0.37	893.259 ± 0.38	888.276 ± 0.39	883.238 ± 0.39
x2 = 0.75	892.266 ± 0.39	887.557 ± 0.4	882.791 ± 0.4	877.959 ± 0.41	873.061 ± 0.42	868.109 ± 0.42
x2 = 0.8	876.537 ± 0.42	871.933 ± 0.43	867.265 ± 0.44	862.532 ± 0.44	857.722 ± 0.45	852.839 ± 0.46
x2 = 0.8498	860.576 ± 0.46	856.092 ± 0.46	851.542 ± 0.47	846.918 ± 0.47	842.221 ± 0.48	837.46 ± 0.49
x2 = 0.8997	844.324 ± 0.49	839.965 ± 0.49	835.544 ± 0.5	831.044 ± 0.51	826.464 ± 0.51	821.827 ± 0.52
x2 = 0.9502	827.634 ± 0.52	823.427 ± 0.53	819.146 ± 0.53	814.788 ± 0.54	810.337 ± 0.54	805.821 ± 0.55

Clc1ccccc1 [chlorobenzene] + CCCCCO
mass density [kg/m3]
Details	288.15 K	293.15 K	298.15 K	303.15 K	308.15 K	313.15 K
x2 = 0	1111.81 ± 0.3	1106.43 ± 0.29	1101.04 ± 0.28	1095.64 ± 0.28	1090.23 ± 0.27	1084.82 ± 0.26
x2 = 0.0495	1096.2 ± 0.29	1090.85 ± 0.28	1085.48 ± 0.27	1080.11 ± 0.26	1074.71 ± 0.25	1069.32 ± 0.24
x2 = 0.1004	1080.5 ± 0.27	1075.21 ± 0.26	1069.9 ± 0.25	1064.57 ± 0.24	1059.22 ± 0.23	1053.86 ± 0.22
x2 = 0.1503	1065.26 ± 0.25	1060.04 ± 0.24	1054.8 ± 0.23	1049.54 ± 0.22	1044.25 ± 0.21	1038.95 ± 0.2
x2 = 0.2001	1050.21 ± 0.23	1045.07 ± 0.22	1039.9 ± 0.21	1034.71 ± 0.2	1029.5 ± 0.2	1024.27 ± 0.19
x2 = 0.2498	1035.28 ± 0.21	1030.21 ± 0.2	1025.13 ± 0.19	1020.02 ± 0.19	1014.88 ± 0.18	1009.72 ± 0.17
x2 = 0.2998	1020.4 ± 0.19	1015.41 ± 0.18	1010.4 ± 0.18	1005.37 ± 0.17	1000.32 ± 0.16	995.245 ± 0.17
x2 = 0.3497	1005.6 ± 0.18	1000.69 ± 0.17	995.77 ± 0.17	990.822 ± 0.18	985.847 ± 0.19	980.857 ± 0.2
x2 = 0.3992	991.011 ± 0.19	986.186 ± 0.2	981.346 ± 0.2	976.483 ± 0.21	971.589 ± 0.21	966.679 ± 0.22
x2 = 0.4498	976.171 ± 0.22	971.436 ± 0.22	966.685 ± 0.23	961.906 ± 0.24	957.097 ± 0.24	952.274 ± 0.25
x2 = 0.5	961.565 ± 0.25	956.92 ± 0.25	952.254 ± 0.26	947.565 ± 0.27	942.839 ± 0.27	938.086 ± 0.28
x2 = 0.5497	947.132 ± 0.28	942.578 ± 0.28	938.003 ± 0.29	933.402 ± 0.29	928.768 ± 0.3	924.119 ± 0.31
x2 = 0.6	932.622 ± 0.3	928.159 ± 0.31	923.676 ± 0.32	919.168 ± 0.32	914.627 ± 0.33	910.077 ± 0.34
x2 = 0.65	918.243 ± 0.34	913.875 ± 0.34	909.486 ± 0.35	905.07 ± 0.35	900.622 ± 0.36	896.149 ± 0.36
x2 = 0.6998	903.925 ± 0.36	899.658 ± 0.37	895.367 ± 0.38	891.05 ± 0.38	886.702 ± 0.39	882.307 ± 0.39
x2 = 0.7499	889.607 ± 0.39	885.436 ± 0.4	881.246 ± 0.41	877.028 ± 0.41	872.777 ± 0.42	868.496 ± 0.42
x2 = 0.8001	875.288 ± 0.42	871.223 ± 0.43	867.134 ± 0.43	863.017 ± 0.44	858.866 ± 0.45	854.684 ± 0.45
x2 = 0.8496	861.143 ± 0.45	857.181 ± 0.46	853.196 ± 0.46	849.186 ± 0.47	845.143 ± 0.47	841.079 ± 0.48
x2 = 0.9002	846.722 ± 0.48	842.865 ± 0.49	838.986 ± 0.49	835.082 ± 0.5	831.149 ± 0.5	827.194 ± 0.51
x2 = 0.95	832.515 ± 0.51	828.762 ± 0.52	824.99 ± 0.52	821.195 ± 0.53	817.369 ± 0.53	813.521 ± 0.54

Source: the NIST ThermoML archive (doi:10.1016/j.fluid.2007.09.028)
